Consider one compound from patent US20060178307A1, “Modulation of NMDA receptor currents via orexin receptor and/or CRF receptor” (priority 2005, published 2006).

Entries after “also recorded” stand apart in the source; their conditions may differ.

Experiment [1] concerns AMPAR/NMDAR ratio of EPSCs in VTA dopamine cells. In words: AMPAR/NMDAR ratio in VTA slices 24 hr after 5-day in vivo treatment. On the set-up: species or system rat. The settings on record: 5 days. Here is the method: The next study investigated whether orexin signaling in the VTA is required for the long-term plasticity associated with the development of behavioral sensitization. Long-term synaptic plasticity at excitatory synapses on VTA neurons was examined 24 hr after a 5-day treatment of cocaine (15 mg/kg) or saline (0.9%), a time course shown to induce long-lasting locomotor sensitization to cocaine (Thomas et al., 2001), with or without the OXR1 antagonist, SB 334867 (10 mg/kg, FIG. 5). To assay for synaptic plasticity, the relative contributions of AMPARs and NMDARs to EPSCs recorded in VTA dopamine cells were compared. Consistent with the potentiation observed following acute and 7-day cocaine treatments (Borgland et al., 2004), 5-day treatment with cocaine potentiated the AMPAR/NMDAR ratio compared to saline controls (FIG. 5A, saline: 0.4±0.07, n=4; cocaine: 0.8±0.1, n=4, p<0.05). This potentiation of synaptic plasticity was blocked by 5-day treatment with the OXR1 antagonist, SB 334867, administered 15 min prior to cocaine or saline (FIG. 5A, saline+SB334867: 0.4±0.02, n=5 vs. cocaine+SB334867: 0.5±0.08, n=11, p>0.05). Since OXR1 antagonists block cocaine-mediated potentiation of the AMPAR/NMDAR ratio, orexin A may either facilitate cocaine-mediated synaptic plasticity or enhance synaptic transmission itself. A 5-min orexin A application was performed to determine whether this caused changes in AMPAR/NMDAR ratio either 15 min or 3-4 hours after application (FIG. 5B).
To calculate the AMPAR/NMDAR ratio, an average of 12 EPSCs at +40 mV was computed before and after application of the NMDAR blocker, AP5 (50 μM) for 5 min. NMDAR responses were calculated by subtracting the average response in the presence of AP5 (AMPAR only) from that seen in its absence; the peak of the AMPAR EPSC was divided by the peak of the NMDAR EPSC to yield an AMPAR/NMDAR ratio.
Male Sprague-Dawley Rats (P21-P30; Charles River, N.C.) were singly housed with food and water available ad libitum. A 12 hr light/dark cycle was used, with the lights on at 7:00 A.M. All cocaine injections and behavioral testing were performed during the light cycle for consecutive days. The four treatment groups consisted of rats given 5 daily i.p. injections of SB 334867 (10 mg/kg) 15 min preceding i.p. injection of cocaine (15 mg/kg) or saline (0.9% NaCl), or i.p. injections of vehicle (10% DMSO and 25% β-hydroxy cyclodextrin in saline) 15 min preceding i.p. injection of cocaine or saline. […] Locomotor activity was measured in 17″×17″ chambers lined with three 16-beam I/R arrays. […] Distance traveled was measured using Open Field Activity Software (Med Associates, Inc) and analyzed for estimates of locomotion based on the movement of a given distance and resting delay (movement in a given period of time).

The next experiment deals with cocaine reinforcement. In words: Operant cocaine self-administration, progressive ratio schedule. Type of experiment: in vivo, rats. The settings on record: 10 mg/kg i.p. on 4th day of progressive ratio, n=12. Here is the method:
Rats were cannulated with an intra-venous cannula to their jugular vein. After one week to 10 days of recovery, the animals were trained to lever press for cocaine (0.5 mg/infusion, 2 second infusion) in Coulburn self-administration boxes. A tone and light above the active lever signalled during a press for cocaine and then a 20 second timeout followed the active lever press.
(§1) After 3-4 weeks of self-administration of cocaine (0.5 mg/infusion) ramping from fixed ratio of 1 lever press (FR1) to receive a reward to a stable fixed ratio of 5 lever presses to receive a reward (FR5) schedule, animals lever pressed for cocaine on a progressive ratio schedule for 4 days. On the second and third day, each animal received a vehicle injection (i.p.), and on the fourth day the animals received an injection (i.p.) of the OXR1 antagonist: SB334867, 10 mg/kg. As a control, orexin modulation of food self-administration was examined under the same paradigm. For food self-administration, animals were trained to an FR5 schedule for food pellets.

The next experiment deals with reinforcement for food. In words: Operant food self-administration, progressive ratio schedule. Type of experiment: in vivo, rats. Here is the method:
as §1
This effect of the OXR1 antagonist was not observed with respect to reinforcement for food. Rats were trained to lever press for food on an […] schedule, and subsequently a progressive ratio schedule. Rats were given vehicle on the 2nd and 3rd day of progressive ratio testing and then SB 334867 (10 mg/kg, i.p.) on the 4th day.

The subject of the next experiment is locomotor activity. The experiment can be described thus: Locomotor sensitization to cocaine, i.p. OXR1 antagonist, open field. Type of experiment: in vivo, Sprague-Dawley rats. As to the method: To determine if orexin signaling plays a role in behavioral sensitization to cocaine, either the OXR1 antagonist SB 334867 (10 mg/kg, i.p.) or vehicle was injected 15 min prior to injecting cocaine (15 mg/kg, i.p) or saline (0.9%), and then the rats were placed in an open field chamber to measure locomotor activity for 1 hour each day for 5 days.
Therefore, to determine if expression of cocaine sensitization requires release of orexin acting at the OXR1 receptor, the OXR1 antagonist SB 334867 (10 mg/kg) was injected with cocaine (15 mg/kg) on day 6 into either cocaine-sensitized or saline-treated rats.
Male Sprague-Dawley Rats (P21-P30; Charles River, N.C.) were singly housed with food and water available ad libitum. A 12 hr light/dark cycle was used, with the lights on at 7:00 A.M. All cocaine injections and behavioral testing were performed during the light cycle for consecutive days. The four treatment groups consisted of rats given 5 daily i.p. injections of SB 334867 (10 mg/kg) 15 min preceding i.p. injection of cocaine (15 mg/kg) or saline (0.9% NaCl), or i.p. injections of vehicle (10% DMSO and 25% β-hydroxy cyclodextrin in saline) 15 min preceding i.p. injection of cocaine or saline. All animals were habituated to the photocell boxes (Med Associates, St. Albans, Vt.) for 2 hours prior to the start of the experiment. All animals were further habituated to the photocell boxes for 30 min prior to 60 min testing session. Locomotor activity was measured in 17″×17″ chambers lined with three 16-beam I/R arrays. A 50 ms scanning rate was used for measurement of beams broken. Distance traveled was measured using Open Field Activity Software (Med Associates, Inc) and analyzed for estimates of locomotion based on the movement of a given distance and resting delay (movement in a given period of time).

Setting [2] is: 10 mg/kg i.p. on 4th day of progressive ratio, n=10.

As to `Cc1nc2ccc(NC(=O)Nc3ccnc4cccnc34)cc2o1.Cl` [SB 334867, 1-(2-methylbenzoxazol-6-yl)-3-[1,5]naphthyridin-4-yl urea hydrochloride], the “effect on cocaine-induced potentiation of AMPAR/NMDAR ratio” value in experiment [1] (10 mg/kg i.p. 15 min prior to cocaine) is reported as “blocked”. For the same compound, the AMPAR/NMDAR ratio in experiment [1] (cocaine 15 mg/kg + SB334867 10 mg/kg 15 min prior, n=11) was determined as 0.5±0.08. In addition, the AMPAR/NMDAR ratio in experiment [1] (saline + SB334867 10 mg/kg 15 min prior, n=5) came out at 0.4±0.02. In the experiment with cocaine reinforcement, the “breakpoint (cocaine)” value is “reduced”, the “natural log of active lever presses for cocaine” value is “reduced”, the “raw active lever presses for cocaine” value is on record as “reduced” and the “total number of cocaine infusions” value is on record as “decreased”. For the same compound, in the experiment on reinforcement for food (setting [2]), the “breakpoint (food)” value was “unaltered” and the “total number of food pellets received” value is listed as “not altered”. In the experiment with reinforcement for food (10 mg/kg i.p., hydrochloride), the reinforcement for food entry is on record as “not observed; also recorded: did not alter”. For the same compound, the baseline locomotor activity result in the experiment with locomotor activity (10 mg/kg i.p. with saline, n=13) is reported as “did not reduce”. Also, the “development of sensitization to cocaine” value with locomotor activity (10 mg/kg i.p., 5 days) was “significantly blocked”. Further, the “locomotor activity on day 6 (expression of cocaine sensitization)” value in the experiment on locomotor activity (10 mg/kg injected with cocaine on day 6, n=7 in each group) is “not significantly reduced”. Further, the “distance traveled on day 5” value with locomotor activity (SB 334867 10 mg/kg i.p. 15 min prior to cocaine 15 mg/kg i.p.) stood at 8504±2564 cm. Also, the “locomotor activity on day 1” value in the experiment on locomotor activity (cocaine-treated rats given SB334867 10 mg/kg, n=11) is 3579±1079 cm.
